What all share (type): functional
Assay [1] relates to SN12C. As to the kind of experiment: Growth inhibition of human SN12C cells at 10^-5 M incubated for 48 hrs by sulforhodamine B assay. The note with it: read-out: GI. In general terms: Sulforhodamine B stains cellular protein and so reports cell mass.
Assay [2] relates to UACC-257. As to the kind of experiment: Growth inhibition of human UACC257 cells at 10^-5 M incubated for 48 hrs by sulforhodamine B assay. The following applies: UACC-257, 48 h, read-out: GI.
Assay [3] concerns HOP-92. As to the kind of experiment: Growth inhibition of human HOP92 cells at 10^-5 M incubated for 48 hrs by sulforhodamine B assay. The following applies: HOP-92, 48 h, read-out: GI.
Assay [4] deals with EKVX. Put plainly: Growth inhibition of human EKVX cells at 10^-5 M incubated for 48 hrs by sulforhodamine B assay. The following applies: read-out: GI.
The subject of assay [5] is HCT-116. Put plainly: Growth inhibition of human HCT116 cells at 10^-5 M incubated for 48 hrs by sulforhodamine B assay. The following applies: HCT-116, 48 h, read-out: GI.
Assay [6] has as its system NCI-H522. Put plainly: Growth inhibition of human NCI-H522 cells at 10^-5 M incubated for 48 hrs by sulforhodamine B assay. The following applies: NCI-H522, 48 h, read-out: GI.
Assay [7] concerns OVCAR-3. As to the kind of experiment: Growth inhibition of human OVCAR3 cells at 10^-5 M incubated for 48 hrs by sulforhodamine B assay. The following applies: OVCAR-3, 48 h, read-out: GI.
The subject of assay [8] is DU-145. As to the kind of experiment: Growth inhibition of human DU145 cells at 10^-5 M incubated for 48 hrs by sulforhodamine B assay. The note with it: DU-145, 48 h, read-out: GI.
In assay [9] the test system is NCI/ADR-RES. Put plainly: Growth inhibition of human NCI/ADR-RES cells at 10^-5 M incubated for 48 hrs by sulforhodamine B assay. The following applies: read-out: GI.
Assay [10] has as its system MCF7. Put plainly: Growth inhibition of human MCF7 cells at 10^-5 M incubated for 48 hrs by sulforhodamine B assay. The following applies: MCF7, 48 h, read-out: GI.
In assay [11] the test system is LOX IMVI. As to the kind of experiment: Growth inhibition of human LOXIMVI cells at 10^-5 M incubated for 48 hrs by sulforhodamine B assay. The following applies: read-out: GI.
Assay [12] concerns CCRF-CEM. Put plainly: Growth inhibition of human CCRF-CEM cells at 10^-5 M incubated for 48 hrs by sulforhodamine B assay. The following applies: read-out: GI.
In assay [13] the test system is HT-29. Put plainly: Growth inhibition of human HT-29 cells at 10^-5 M incubated for 48 hrs by sulforhodamine B assay. The note with it: HT-29, 48 h, read-out: GI.
For assay [14], the system named is SNB-75. Put plainly: Growth inhibition of human SNB75 cells at 10^-5 M incubated for 48 hrs by sulforhodamine B assay. The note with it: SNB-75, 48 h, read-out: GI.
The subject of assay [15] is OVCAR-4. As to the kind of experiment: Growth inhibition of human OVCAR4 cells at 10^-5 M incubated for 48 hrs by sulforhodamine B assay. The following applies: OVCAR-4, 48 h, read-out: GI.
The test system of assay [16] is A549. Put plainly: Growth inhibition of human A549/ATCC cells at 10^-5 M incubated for 48 hrs by sulforhodamine B assay. The note with it: A549, 48 h, read-out: GI.
Assay [17] deals with OVCAR-5. Put plainly: Growth inhibition of human OVCAR5 cells at 10^-5 M incubated for 48 hrs by sulforhodamine B assay. The note with it: OVCAR-5, 48 h, read-out: GI.
The subject of assay [18] is HCC 2998. Put plainly: Growth inhibition of human HCC2998 cells at 10^-5 M incubated for 48 hrs by sulforhodamine B assay. The note with it: HCC 2998, 48 h, read-out: GI.
For assay [19], the system named is KM12. As to the kind of experiment: Growth inhibition of human KM12 cells at 10^-5 M incubated for 48 hrs by sulforhodamine B assay. The note with it: KM12, 48 h, read-out: GI.
Assay [20] has as its system MDA-MB-435. As to the kind of experiment: Growth inhibition of human MDA-MB-435 cells at 10^-5 M incubated for 48 hrs by sulforhodamine B assay. The following applies: MDA-MB-435, 48 h, read-out: GI.
Assay [21] has as its system U-251. As to the kind of experiment: Growth inhibition of human U251 cells at 10^-5 M incubated for 48 hrs by sulforhodamine B assay. The following applies: U-251, 48 h, read-out: GI.

From ChEMBL document CHEMBL4414672, “Synthesis of certain benzothieno[3,2-d]pyrimidine derivatives as a selective SIRT2 inhibitors” (Eur J Med Chem, 2020) come the findings set out here.

On to `S=C1Nc2c(sc3ccc(Cl)cc23)C(c2cccc(Br)c2)N1` (configuration not stated), for which the inhibition of growth at 10 µM in assay [1] was 2.82%; in assay [2] it was -8.63%; in assay [3], -3.61%; in assay [4], 12.4%; in assay [5], 10.9%; in assay [6], 12%. Also, the inhibition of growth at 10 µM was -0.26% in [7]; -11.9% in assay [8]; -3.15% in assay [9]; -11.9% in assay [10]; -0.61% in assay [11]; -16.1% in assay [12]. The inhibition of growth at 10 µM in assay [13] is 0.35%; in assay [14], 18.5%; in assay [15], 8.7%; in assay [16] it was -7.88%; in assay [17], -0.03%; in assay [18], -27.2%. In addition, the inhibition of growth at 10 µM is -2.38% in assay [19], -2.42% in assay [20] and -7.09% in [21].
Take `O=C1Nc2c(sc3ccc(Cl)cc23)C(c2ccc3ccccc3c2)N1` (configuration not stated): the inhibition of growth at 10 µM in assay [1] was 10.9%; in assay [2] it was 14.5%; in assay [3], 24.7%; in assay [4], 16.5%; in assay [5] it was -4.42%; in [6] it was 11.9%. The inhibition of growth at 10 µM in assay [7] was 3.83%; in assay [8], -6.96%; in assay [9] it was -2.33%; in [10], 22.5%; in [11], -0.62%; in [12] it was -13.3%. For the same compound, the inhibition of growth at 10 µM in assay [13] was -0.76%; in assay [14] it was 21.5%; in [15], 3.19%; in assay [16] it was 4.41%; in assay [17], 8.06%; in assay [18], -14.6%. Further, the inhibition of growth at 10 µM is -4.05% in assay [19], -8.72% in assay [20] and 1.75% in assay [21].
Regarding `N=C1Nc2c(sc3ccc(Cl)cc23)C(c2ccccc2O)N1` (configuration not stated), the inhibition of growth at 10 µM was -22.4% in assay [1]; -10.3% in assay [2]; 21.2% in [3]; 17.6% in assay [4]; 10.7% in [5]; 7.68% in [6]. The inhibition of growth at 10 µM in assay [7] was -1.68%; in assay [8] it was 23.3%; in [9] it was 7.92%; in assay [10], 13.9%; in [11], -0.7%; in [12], -8.23%. The inhibition of growth at 10 µM was -6.21% in assay [13]; 22.4% in assay [14]; 12.3% in assay [15]; -4.84% in assay [16]; -1.61% in assay [17]; -22.2% in assay [18]. Also, the inhibition of growth at 10 µM in [19] is -3.63%; in assay [20], 2%; in assay [21], -7.81%.
For the compound `O=C1Nc2c(sc3ccc(Cl)cc23)C(c2cccc(Br)c2)N1` (configuration not stated), the inhibition of growth at 10 µM in assay [1] is 2.71%; in [2], -7.95%; in [3], 0.42%; in assay [4], 7.46%; in [5] it was 4.12%; in assay [6], -0.2%. Also, the inhibition of growth at 10 µM in [7] is 6.24%; in assay [8] it was -8.69%; in assay [9], 12.2%; in assay [10], -8.69%; in [11], -3.37%; in [12], -14.4%. Moreover, the inhibition of growth at 10 µM in assay [13] is -7.8%; in [14], 15.2%; in assay [15], -6.24%; in assay [16], 5.34%; in [17], -1.01%; in assay [18] it was -23.5%. The inhibition of growth at 10 µM in assay [19] is -0.31%; in assay [20], -5.37%; in [21], -3.91%.
`O=C1Nc2c(sc3ccc(Cl)cc23)C(c2ccccc2O)N1` (configuration not stated): the inhibition of growth at 10 µM came out at 7.73% in assay [1]; 9.85% in assay [2]; 21% in assay [3]; 21.9% in assay [4]; 4.28% in [5]; 16% in assay [6]. Also, the inhibition of growth at 10 µM in [7] is 4.91%; in assay [8], -8.18%; in assay [9], 1.65%; in [10] it was -8.18%; in assay [11] it was -0.62%; in assay [12] it was -4.19%. Also, the inhibition of growth at 10 µM was -3.51% in assay [13]; 27.4% in assay [14]; 9.71% in assay [15]; -1.35% in assay [16]; 1.92% in assay [17]; -15.3% in assay [18]. In addition, the inhibition of growth at 10 µM in [19] is -2.4%; in assay [20], -3.03%; in assay [21], 4.41%.
Regarding `N=C1Nc2c(sc3ccc(Cl)cc23)C(c2ccc3ccccc3c2)N1` (configuration not stated), the inhibition of growth at 10 µM in assay [1] was -25.1%; in assay [2] it was 8.66%; in assay [3] it was 8.76%; in assay [4] it was 1.13%; in assay [5], 10.6%; in assay [6], -6.52%. For the same compound, the inhibition of growth at 10 µM in assay [7] was 8.92%; in assay [8] it was 12.1%; in assay [9], 1.25%; in assay [10], 6.28%; in assay [11], 6.47%; in assay [12] it was -3.9%. Also, the inhibition of growth at 10 µM is -3.45% in assay [13]; 0.66% in [14]; 6.63% in assay [15]; 7.42% in assay [16]; -3.77% in [17]; 10.9% in [18]. Moreover, the inhibition of growth at 10 µM is 3.41% in [19], -4.57% in assay [20] and -0.54% in assay [21].
In the case of `Oc1ccccc1C1NC(=S)Nc2c1sc1ccc(Cl)cc21` (configuration not stated), the inhibition of growth at 10 µM in assay [1] is 9.77%; in assay [2], -1.4%; in assay [3], 13.4%; in [4] it was 19.7%; in assay [5] it was 8.97%; in assay [6], 7.8%. Moreover, the inhibition of growth at 10 µM was 4.13% in assay [7]; -7.9% in assay [8]; 9.4% in [9]; -7.9% in [10]; 6.44% in [11]; -4.86% in assay [12]. The inhibition of growth at 10 µM in assay [13] is -1.54%; in assay [14], 21.1%; in assay [15], 7.52%; in assay [16] it was 5.42%; in [17] it was 5.8%; in assay [18] it was -10.6%. Besides, the inhibition of growth at 10 µM in [19] was 1.3%; in assay [20], -10.2%; in assay [21], -5.09%.
